Reference: patent publication US20230146455A1, “TREATMENT OF INFLAMMATORY DISEASES WITH PEPTIDES AND PHARMACEUTICAL COMPOSITIONS” (Yuyu Pharma, Inc., priority 2020, published 2023)
Several values for one entry are separate records, joined by “and”; a condition that tells them apart may be missing. Equal entries are not always repeated. Where two headings read alike, the source gives them in different places. One block for each compound: values may come before it. Where a SMILES comes first, the peptide text is derived from it. [ ]: non-standard residue; d: D form. Hyp = O=C(O)[C@@H]1C[C@@H](O)CN1

Assays:
[1] = Apparent permeability, 21 day cultured Caco-2 cell monolayer, bi-directional (Example 7); type: in vitro ADME; conditions: Caco-2, 2 μM, 120 minutes; for recovery at 120 min, 2 μM: human
Description: (§1) 10 mM stock solution of test compound was prepared in DMSO. 10 mM stock was diluted with 100% DMSO to prepare 0.2 mM, 0.2 mM stock was diluted with HBSS buffer to a final concentration of 2 μM.
(§2) Add 250 μL of DMEM to the basal compartment of 96 well multi-screen Caco-2 plates and seed 12000 cells/well (0.16×10^6 cells/ml) in all the apical wells required and 2 wells with only media as blank without cells. Place the Caco-2 plate in CO2 incubator at 37° C. for proliferation of cells.
(§3) The utilized media was replenished every alternate day by fresh medium. On 21st day, utilized medium was removed and washed twice with HBSS Buffer and incubated with HBSS buffer 30 min in incubator and initiated the assay.
(§4) 75 μL of test compound was added to apical wells and 250 μL of HBSS buffer with 1% DMSO was added to basal wells. Samples were collected at 120 min and processed as stated below.
(§5) 250 μL of test compound was added to basal wells and 75 μL of HBSS buffer with 1% DMSO was added to apical wells. Samples were collected at 120 min and processed as stated below.
(§6) Single point calibration curve in HBSS buffer was used. 100 μL of supernatant was diluted with 200 μL of water and submitted for LC-MS/MS analysis.
(§7) Efflux ratio=Papp of basal to apical samples/Papp of apical to basal samples
(§8) Recovery: {(dQ of Apical+dQ of Basal)/Standard dQ}*100

[2] = tested on: Caco-2 cells monolayer; assay: as above; type: in vitro ADME
Description: as §1, §2, §3, §4, §5, §6, §7, §8

[3] = tested on: IL-6 release in human PBMCs stimulated by poly(I:C), LPS or PMA/Ionomycin; assay: IL-6 ELISA in stimulated human PBMCs, 2nd pilot study (Example 8); type: cell-based; conditions: for IL-6 (ELISA), individual wells / IL-6 (ELISA), Mean: 24 hr
Description: Human PBMCs frozen in a cryopreserve was thawed, washed with Hank's Balanced Salt Solution containing 10% Fetal bovine serum, and seeded onto a 24-well plate at a density of 1×10^6 cells/well with culture RPMI media containing 10% Fetal bovine serum in growth media in a 24 well plate for 12, 24, and 48 hrs and maintained at 37° C. in an atmosphere of 95% air and 5% CO2.
Human PBMCs was pretreated with a test compound; YDE-011 at 30 uM, 1 μM for 2 h before stimulation. An equal volume of 0.5% DMSO was used as a vehicle control. […] The supernatants from treated cells were harvested at 24 h and placed in 96 well for Human IL-6 ELISAS measurement according to the manufacturer's instructions (Invitrogen, CA, USA). […]
IL-6 measurement was performed by the sandwich ELISA method. The capture antibody was coated on a 96-well plate (Corning™ Costar™ 9018, NY, USA) at 100 ul/well and incubated overnight at 4° C. The interaction was blocked at room temperature for 2 h to prevent non-specific binding of the antigen-antibody. Then, the plate was incubated overnight at 4° C. with 1:200 diluted cell supernatants and standard dilute serial dilutions at 100 ul/well. Detection antibody was dispensed into the plate at 100 ul/well, and then allowed to incubate at a room temperature for 1 h. Finally, streptavidin-HRP (100 ul/well) was incubated at room temperature for 30 min. […] The sample reading was measured at 450 nm wavelength and 570 nm, and the quantification of the sample was converted as concentration (ng/ml) based on the standard curve extrapolation.

[4] = tested on: rats with ELGE dry eye condition; assay: Corneal damage induced by ELGE in rats; type: in vivo, rat

recovery at 120 min, 2 μM ([1]; read-out: A to B % Recovery): 15%
recovery at 120 min, 2 μM ([1]; read-out: B to A % Recovery): 88.5%
Classification (Caco-2 Permeability) [2]: LOW
SMILES: CC(C)C[C@H](NC(=O)CNC(=O)[C@H](CC(C)C)NC(=O)[C@H](CCC(N)=O)NC(=O)CNC(=O)[C@@H]1C[C@@H](O)CN1)C(=O)N[C@@H](C)C(=O)NCC(=O)N1CCC[C@H]1C(=O)N[C@@H](CCCCN)C(=O)O [YDE-011] (H-[Hyp]GQLGLAGPK-OH)
IL-6 induction in PBMCs (in words) ([3]; 1 uM, poly I:C, LPS or PMA/Ionomycin): effectively and significantly reduced IL-6 induction
IL-6 (ELISA), individual wells ([3]; PBMC + LPS(5 ug/ml) + YDE-011 1 uM): 14532.1 and 12561.2
IL-6 (ELISA), Mean ([3]; PBMC + LPS(5 ug/ml) + YDE-011 1 uM, LPS alone Mean 26093.3): 13546.7
IL-6 (ELISA), individual wells ([3]; PBMC + LPS(5 ug/ml) + YDE-011 30 uM): 23199.5 and 18310.8
IL-6 (ELISA), Mean ([3]; PBMC + LPS(5 ug/ml) + YDE-011 30 uM, LPS alone Mean 26093.3): 20755.2
IL-6 (ELISA), individual wells ([3]; PBMC + PMA(1 ng/ml)/Ionomycin(0.5 ug/ml) + YDE-011 1 uM): 2817.2 and 3828.2
IL-6 (ELISA), Mean ([3]; PBMC + PMA(1 ng/ml)/Ionomycin(0.5 ug/ml) + YDE-011 1 uM, stimulant alone Mean 4075.5): 3322.7
IL-6 (ELISA), individual wells ([3]; PBMC + PMA(1 ng/ml)/Ionomycin(0.5 ug/ml) + YDE-011 30 uM): 3114.6 and 3025
IL-6 (ELISA), Mean ([3]; PBMC + PMA(1 ng/ml)/Ionomycin(0.5 ug/ml) + YDE-011 30 uM, stimulant alone Mean 4075.5): 3069.8
IL-6 (ELISA), individual wells ([3]; PBMC + Poly I:C(25 ug/ml) + YDE-011 1 uM): 13701 and 12585.1
IL-6 (ELISA), Mean ([3]; PBMC + Poly I:C(25 ug/ml) + YDE-011 1 uM, Poly I:C alone Mean 21429.5): 13143.1
IL-6 (ELISA), individual wells ([3]; PBMC + Poly I:C(25 ug/ml) + YDE-011 30 uM): 39230.7 and 30634.7
IL-6 (ELISA), Mean ([3]; PBMC + Poly I:C(25 ug/ml) + YDE-011 30 uM, Poly I:C alone Mean 21429.5): 34932.7
IL-6 induction in PBMCs (in words) ([3]; higher concentration): diminished at a higher concentration
IL-6 levels induced by LPS or poly I:C (in words) ([3]; pilot studies): significantly reduced IL-6 levels induced by LPS or poly I:C

recovery ([1]; read-out: A to B % Recovery): 34%
recovery ([1]; read-out: B to A % Recovery): 67.2%
Classification (Caco-2 Permeability) [2]: LOW
SMILES: CC(C)C[C@H](NC(=O)[C@H](CCC(N)=O)NC(=O)CNC(=O)[C@@H]1C[C@@H](O)CN1)C(=O)NCC(=O)O [YDE-043] (H-[Hyp]GQLG-OH; N-terminus and C-terminus assumed)
corneal damage induced by ELGE (in words) [4]: effective in improving corneal damaged induced by ELGE
